Assay results as given in patent US9255090B2, “Heterocyclyl derivatives and their use as prostaglandin D2 receptor modulators” (Actelion Pharmaceuticals Ltd., priority 2012, dated 2016).

How the values were obtained:
hCRTH2 receptor = hCRTH2 receptor (Homo sapiens (Human), UniProt Q9Y5Y4); experiment: hCRTH2 receptor membranes radioligand (3H-PGD2) displacement assay; format: binding; settings: 3H-PGD2 radioligand displacement, HEK293-hCRTH2 membranes
Outline: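 Compound was first mixed with buffer, then 3H-PGD2 was added at 2.5 nM, and the reaction was started with hCRTH2 membranes from HEK293 cells at 20 μg/well. After 90 min at room temperature, mixtures were filtered and washed with ice-cold buffer, and retained radioactivity was counted.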

eosinophils = experiment: Eosinophil shape change assay with human plasma; format: cell-based; settings: human plasma (50%), PGD2 100 nM activation, antagonistic activity
Outline: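 Human polymorphonuclear cells stained with anti-CD49d-APC, combined with compound-preincubated human plasma (50% of final volume, 4×10^6 cells/ml) for 10 min at 37° C., then stimulated 5 min with 100 nM PGD2 and fixed. Flow cytometry scored percent eosinophils with increased forward scatter.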

hCRTH2 receptor, sequence (Q9Y5Y4 whole entry): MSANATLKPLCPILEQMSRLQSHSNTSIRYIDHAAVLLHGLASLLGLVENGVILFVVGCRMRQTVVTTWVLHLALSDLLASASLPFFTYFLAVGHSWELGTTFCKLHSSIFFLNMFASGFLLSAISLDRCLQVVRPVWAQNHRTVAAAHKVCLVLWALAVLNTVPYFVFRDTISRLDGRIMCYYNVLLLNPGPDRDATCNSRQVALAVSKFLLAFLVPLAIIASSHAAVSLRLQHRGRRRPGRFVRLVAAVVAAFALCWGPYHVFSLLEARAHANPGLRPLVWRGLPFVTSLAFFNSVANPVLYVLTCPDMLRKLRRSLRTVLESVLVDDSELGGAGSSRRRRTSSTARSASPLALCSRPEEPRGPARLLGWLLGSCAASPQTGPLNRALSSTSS

`CC(C)Oc1ccc(CC(=O)O)cc1-c1ccc(F)c2c1CN(C(=O)OCc1ccccc1)CC2` [Example 22, 8-(5-Carboxymethyl-2-isopropoxy-phenyl)-5-fluoro-3,4-dihydro-1H-isoquinoline-2-carboxylic acid benzyl ester] showed an IC50 (hCRTH2 receptor) of 0.00472 µM and an IC50 (eosinophils; Homo sapiens, Eosinophil) of 0.038 µM.

In the case of `COc1ccc(CC(=O)O)cc1-c1ccc(F)c2c1CN(C(=O)[C@@H]1C[C@H]1c1ccccc1)CC2` (racemic) [Example 60, (±)-{3-[5-Fluoro-2-(trans-2-phenyl-cyclopropanecarbonyl)-1,2,3,4-tetrahydro-isoquinolin-8-yl]-4-methoxy-phenyl}-acetic acid], the IC50 (hCRTH2 receptor) is reported as 0.00264 µM and the IC50 (eosinophils; Homo sapiens, Eosinophil) is reported as 0.013 µM.

`CCOc1ccc(CC(=O)O)cc1-c1ccc(F)c2c1CN(C(=O)CC(C)c1ccccn1)CC2` (stereo not drawn) [Example 203, {4-Ethoxy-3-[5-fluoro-2-(3-pyridin-2-yl-butyryl)-1,2,3,4-tetrahydro-isoquinolin-8-yl]-phenyl}-acetic acid] was tested, and the IC50 (hCRTH2 receptor) was 0.0029 µM and the IC50 (eosinophils) was 0.012 µM.

In the case of `COc1ccc(CC(=O)O)cc1-c1ccc(F)c2c1CN(C(=O)[C@@H]1C[C@H]1c1ccccc1)CC2` [Example 80, {3-[5-Fluoro-2-((1R,2R)-2-phenyl-cyclopropanecarbonyl)-1,2,3,4-tetrahydro-isoquinolin-8-yl]-4-methoxy-phenyl}-acetic acid], the IC50 (hCRTH2 receptor) is reported as 0.00189 µM and the IC50 (eosinophils; Homo sapiens, Eosinophil) is reported as 0.0047 µM.

Molecule `CCOc1ccc(CC(=O)O)cc1-c1ccc(F)c2c1CN(C(=O)CC1CCOc3ccccc31)CC2` (racemic) [Example 226] has an IC50 (hCRTH2 receptor) of 0.0129 µM and an IC50 (eosinophils; Homo sapiens, Eosinophil) of 0.043 µM.

Work on `COc1ccc(CC(=O)O)cc1-c1ccc(F)c2c1CN(C(=O)CC(C)(C)c1ccccc1)CC2` [Example 108, {3-[5-Fluoro-2-(3-methyl-3-phenyl-butyryl)-1,2,3,4-tetrahydro-isoquinolin-8-yl]-4-methoxy-phenyl}-acetic acid] yielded an IC50 (hCRTH2 receptor) of 0.0101 µM and an IC50 (eosinophils; Homo sapiens, Eosinophil) of 0.092 µM.

With `COc1ccc(CC(=O)O)cc1-c1ccc(F)c2c1CN(C(=O)CCN1CCc3ccccc31)CC2` [Example 59, {3-[2-(3-2,3-Dihydro-indol-1-yl-propionyl)-5-fluoro-1,2,3,4-tetrahydro-isoquinolin-8-yl]-4-methoxy-phenyl}-acetic acid] the IC50 (hCRTH2 receptor) was 0.0074 µM and the IC50 (eosinophils; Homo sapiens, Eosinophil) was 0.182 µM.

Molecule `COc1ccc(CC(=O)O)cc1-c1ccc(F)c2c1CN(C(=O)CC(C)(C)c1cccc(F)c1)CC2` [Example 252, (3-{5-Fluoro-2-[3-(3-fluoro-phenyl)-3-methyl-butyryl]-1,2,3,4-tetrahydro-isoquinolin-8-yl}-4-methoxy-phenyl)-acetic acid] has an IC50 (hCRTH2 receptor) of 0.0132 µM and an IC50 (eosinophils; Homo sapiens, Eosinophil) of 0.258 µM.

`CCOc1cc(CC(=O)O)ccc1-c1ccc(F)c2c1CN(C(=O)CC1OCCc3ccccc31)CC2` (stereo not drawn) [Example 206, {3-Ethoxy-4-[5-fluoro-2-(2-isochroman-1-yl-acetyl)-1,2,3,4-tetrahydro-isoquinolin-8-yl]-phenyl}-acetic acid] gave an IC50 (hCRTH2 receptor) of 0.0024 µM and an IC50 (eosinophils) of 0.014 µM.
